{"source": "patent US20250186452A1", "about": "“NOVEL USE OF QUINOLINE COMPOUND” (TARAPEUTICS SCIENCE INC., priority 2022, published 2025)", "system": "RAW264.7 cells", "assay": "Cell transformation experiment: CD86 RNA level in M2-induced RAW264.7 cells (qPCR)", "format": "cell-based, mouse", "protocol": "RAW264.7 cells (purchased from ATCC, USA) were sucked up and down with a pipette, and the cells were added to a centrifuge tube, placed in a centrifuge, and centrifuged at 800 rpm for 4 minutes.\nIn this experiment, an RNA extraction kit (purchased from Tiangen Biochemical Technology, China, catalog number: DP451) was used. RNA extraction was performed according to the instructions, and the concentration of RNA in the sample was detected using a NanoDrop nucleic acid concentration meter, and the RNA solution was diluted to the same concentration.\nIn this experiment, TakaRa One Step TB Green® PrimeScript™ PLUS RT-PCR Kit (purchased from TaKaRa Bio, catalog number: RR096A) was used, which contained the following components:\nThe procedure was as follows: • (1) The PCR primers were taken out and placed on ice. The primer sequences used were as follows: […]\n• (3) After the RT-PCR reaction reagents were prepared, they were mixed, and the mixture was dispensed into 8-Strip Tubes. 2 μL of RNA sample was added to the tube, the bottom of the tube was gently tapped to mix the solution, and the tube was centrifuged in a centrifuge for a while. • (4) The fluorescence quantitative PCR instrument was turned on. […] Roche analysis software LightCycler® 96 SW 1.1 was used to analyze the data, and the analyzed data was imported into Graphpad Prism7.0 for drawing.", "data": [{"smiles": "COc1cc2nccc(Oc3ccc(NC(=O)Cc4ccc(Cl)c(C(F)(F)F)c4)cc3)c2cc1OC", "note": "[Example 2, N-(4-((6,7-dimethoxyquinolin-4-yl)oxy)phenyl)-2-(4-chloro-3-(trifluoromethyl)phenyl)-acetamide]", "values": [{"measurement": "effect on CD86 RNA level compared with positive controls", "setting": "1 μM, same dose as PLX3397 and BLZ945, FIG. 2", "result": "better for Compound 2 at 1 μM than positive controls PLX3397 and BLZ945"}, {"measurement": "RNA level of CD86", "setting": "RAW264.7 induced to M2, treated 72 hours, serial dilutions, FIG. 2", "result": "increased in a dose-dependent manner"}]}]}
